Measured values: US6613719B1, “3-(4,5-dihydroisoxazol-3-yl)-substituted benzoylpyrazoles” (BASF Aktiengesellschaft, priority 1999, dated 2003)

Cc1c(C(=O)c2cnn(C)c2O)ccc(S(C)(=O)=O)c1C1=NOC(CCl)C1 (stereo not shown) [Compound 2.1, 4-[2-Methyl-3-(5-chloromethyl-4,5-dihydroisoxazol-3-yl)-4-methyl-sulfonylbenzoyl]-5-hydroxy-1-methyl-1H-pyrazole]
melting point: 76 to 78 °C
